The numbers were not newly measured in patent publication US10543293B2, “Medical dressing” (BSN MEDICAL GMBH, priority 2013, dated 2020), which cites them from elsewhere.

The structures appear in SMILES notation.

For series [1] the following is noted: generally assumed.
The next series relates to human fibroblasts. Conditions: NO concentrations employed in vitro.
The next series relates to keratinocytes. Conditions: NO concentrations employed in vitro; human keratinocytes.
The next series has as its system endothelial cells. Conditions: NO concentrations employed in vitro; human endothelial cells.

Take `[N]=O` [NO, nitric oxide]: for the setting “at 37° C., higher than that of oxygen or carbon monoxide”, the “diffusion coefficient of NO relative to oxygen or carbon monoxide” value is “approximately 1.4 times”. For the same compound, for the setting “calculated on the basis of the diffusion coefficient”, the “diffusion path that can be achieved in the tissues” value is on record as 500 μm. In addition, the “maximum solubility of NO in aqueous solutions” value in series [1] is on record as “approximately 2 mM”. Also, the toxic effects result with human fibroblasts, with keratinocytes and with endothelial cells was “did not display any toxic effects” throughout.
